Row | SMILES | melting point [°C]
1 | COc1cc(CN)cc(OC)c1O | 149 to 151
2 | CC(C)c1cc(O)ncn1 | 131 to 133
3 | O=C(O)CCn1c(=O)[nH]c(=O)c2ccccc21 | 231 to 233
4 | CC(C)(C)OC(=O)NCC1CCCCN1 (centres undefined) | 93 to 95
5 | CC(C)Cc1csc2nc(CC#N)[nH]c(=O)c12 | 218 to 220
6 | Cc1nc2s[nH]c(=O)c2c(C)c1C | 236 to 238
7 | CCCSc1ccc(C(=O)O)cc1 | 141 to 143
8 | COC(=O)Cc1c(C(=O)OC)sc2nc(CCl)[nH]c(=O)c12 | 208 to 210
9 | OCCN(Cc1ccccc1)Cc1ccccc1 | 41 to 43
10 | Nc1ccc(CCn2cc(Br)cn2)cc1 | 65 to 67
11 | CCn1cc(Br)cc1C(=O)O | 148 to 150
12 | CS(=O)(=O)c1nnc(N)[nH]1 | 243 to 245
13 | CC(=Cc1ccc(F)cc1)C(=O)O | 150 to 152
14 | N#CCC1=NC(=O)CS1 | 183 to 185
15 | CC1Cc2ccccc2N1Cc1ccoc1C(=O)O (centres undefined) | 170 to 172
16 | O=C(CCl)NCC1CCCc2ccccc21 (centres undefined) | 114 to 116
17 | Nc1ccc(S(N)(=O)=O)cn1 | 171 to 173
18 | NS(=O)(=O)C1CCCCC1 | 91 to 93
19 | O=C(O)c1cnn(Cc2ccccc2)c1 | 149 to 151
20 | O=C(c1ccccc1)c1ccccc1Br | 72 to 74
21 | CNS(=O)(=O)c1ccc(NCCOC)c(N)c1 | 111 to 113
22 | OCCOc1cc(Cl)ccc1Cl | 59 to 61
23 | COCCSc1ccc([N+](=O)[O-])cc1C(=O)O | 159 to 161
24 | Cc1ccc(CN)cn1 | 59 to 61
25 | O=C(O)C=CC1CC1 | 68 to 70

Row | SMILES | melting point [°C]
26 | CCC1NC(=O)NC1=O (centres undefined) | 115 to 119
27 | CCn1nc(C(F)(F)F)c(C(=O)O)c1C(F)(F)F | 89 to 91
28 | Cc1nc2nc(S)nn2c(C)c1CC(=O)O | 226 to 228
29 | CCN1CCN(Cc2ccc(N)cc2)CC1 | 72 to 74
30 | N#CCC(=O)c1ccsc1 | 92 to 94
31 | OC1C=C(c2ccc(Cl)cc2)CC1 (centres undefined) | 89 to 91
32 | N#Cc1cc(N)ccc1N1CCC(O)CC1 | 137 to 139
33 | c1cc2n(n1)CCCN2 | 99 to 101
34 | O=C(O)c1n[nH]c2c1CCC2 | 287 to 289
35 | COc1ccc(C(=O)O)cc1S(=O)(=O)N1CCCCCC1 | 190 to 194
36 | O=S(=O)(Cl)c1cnc(Cl)c(Cl)c1 | 46 to 48
37 | O=C(CCl)Nc1ccc(Cl)cn1 | 142 to 144
38 | O=S(=O)(c1ccc(F)cc1)N1CCNCC1 | 112 to 114
39 | CC1CCC(NC(=O)CN2CCNCC2)CC1 (centres undefined) | 120 to 122
40 | O=C(CCl)N(Cc1ccc(F)cc1)C12CC3CC(CC(C3)C1)C2 | 129 to 131
41 | CCOC(=O)c1cnc(O)nc1C | 179 to 181
42 | CC(C)(C)C(=O)N1CCc2cc(C(=O)O)ccc21 | 195 to 197
43 | CC(=CC(=O)O)c1ccccc1OC(F)F | 69 to 71
44 | Nc1cc(C(=O)O)ccc1N1CCSCC1 | 252 to 254
45 | O=C(CCCc1ccc(Br)cc1)c1ccccc1 | 84 to 86
46 | NC(=O)COc1ccc(C(=O)O)cc1 | 273 to 275
47 | O=C(O)C1(c2ccc(F)cc2F)CCC1 | 64 to 66
48 | CCCCn1c(CCC(=O)O)nc2cc(S(=O)(=O)N3CCOCC3)ccc21 | 136 to 138
49 | O=C(O)c1cc(Cl)c2c(c1)OCCO2 | 251 to 253
50 | Fc1ccc(NC(=NC2CC2)c2ccccc2)cc1 | 92 to 94

Row | SMILES | melting point [°C]
51 | CC(C)(C)c1ccc(Oc2ccc(C(=O)O)cn2)cc1 | 143 to 145
52 | NC(=O)c1ccc(OCC(=O)O)cc1 | 264 to 266
53 | CN(c1ccc(CN)cc1)S(C)(=O)=O | 46 to 48
54 | CS(=O)(=O)c1ccc(OCCBr)cc1 | 100 to 102
55 | Nc1ccc(Sc2ccccc2Cl)cc1 | 77 to 79
56 | C/C(CC(=O)c1ccccc1)=N\c1ccccc1 | 110 to 112
57 | CC(=O)Nc1cc(F)c(S(=O)(=O)Cl)cc1Cl | 163 to 165
58 | COc1cc(C=O)cc(Cl)c1OC(F)F | 75 to 77
59 | N#CCC(=O)c1ccc(F)cc1 | 84 to 88
60 | CCc1[nH]nc(C(=O)O)c1[N+](=O)[O-] | 149 to 151
61 | C=CCn1c(C)cc(C(=O)CCl)c1C | 36 to 40
62 | COc1cc(C)nc(CO)c1 | 69 to 71
63 | O=C(O)c1ccc2c(=O)n(-c3ccc(F)cc3)c(=O)[nH]c2c1 | 397 to 399
64 | O=C(O)c1cccn1Cc1ccncc1 | 199 to 201
65 | CCOc1ccc(OCC2CO2)cc1 (centres undefined) | 53 to 55
66 | COc1cc(CNC(=O)CCl)cc(OC)c1OC | 106 to 108
67 | CCOc1ccc(C=CCN)cc1 | 46 to 48
68 | NC(CCCO)c1ccccc1 (centres undefined) | 72 to 74
69 | NC(=Nc1ccccc1)N1CCCCC1 | 61 to 63
70 | CN(C)C=CC(=O)C(F)(F)F | 52 to 54
71 | Cc1c(C=O)cc(C#N)n1C | 85 to 97
72 | CCn1c(C)cc(C(=O)CCl)c1C | 89 to 91
73 | NCCCCN1CCN(CCO)CC1 | 90 to 92
74 | CN(C)S(=O)(=O)c1ccc(F)c([N+](=O)[O-])c1 | 118 to 120
75 | O=C(NCCc1cccs1)C1Cc2ccccc2CN1 (centres undefined) | 86 to 88

Second part, the molecule after the results:

Row | melting point [°C] | SMILES
76 | 235 to 237 | Cc1onc2c(=O)[nH]nc(-c3ccccc3)c12
77 | 68 to 70 | COc1ccccc1-n1cc(S(=O)(=O)Cl)cn1
78 | 116 to 119 | COc1ccc2ccc(O)cc2c1
79 | 225 to 227 | O=C(O)c1c[nH]c2ccc(F)cc12
80 | 142 to 144 | CCOc1cn(-c2ccccc2)nc1C(=O)O
81 | 138 to 140 | CC(Oc1ccccc1Br)C(=O)O (centres undefined)
82 | 219 to 221 | CN1CC(=O)N(Cc2ccc(C(N)=O)cc2[N+](=O)[O-])C1=O
83 | 181 to 183 | O=c1[nH]c2ccccc2n1C1=CCCCC1
84 | 65 to 67 | CC(C)(C)OC(=O)NCCOc1cccc(N)c1
85 | 126 to 128 | COc1cc(N)ccc1N1CCCC1=O
86 | 239 to 241 | O=C(O)c1cccc(-c2ncn[nH]2)c1
87 | 176 to 178 | Nc1ccc2nc(N3CCOCC3)oc2c1
88 | 155 to 157 | COc1ccc(N)c2cccnc12
89 | 219 to 221 | Cc1ccc(-c2cnc(-c3ccccc3C(=O)O)o2)cc1
90 | 200 to 202 | COc1cc(-c2cc(C(=O)NN)c3ccccc3n2)cc(OC)c1OC
91 | 180 to 182 | Brc1ccc(-n2cnnn2)cc1
92 | 125 to 127 | Brc1cnn(-c2ccncc2)c1
93 | 49 to 51 | CSc1ccc(N)cc1F
94 | 132 to 134 | Nc1cc(-c2cc(Cl)cc(Cl)c2)no1
95 | 217 to 219 | O=C(Nc1cc(F)ccc1C(=O)O)c1cccc(Br)c1
96 | 103 to 105 | Oc1ccc2oc3c(c2c1)CCCC3
97 | 215 to 217 | N#CC(C(=O)CCl)c1nc(-c2ccccc2)cs1 (centres undefined)
98 | 127 to 129 | NCc1noc(-c2ccsc2)n1

Row | melting point [°C] | SMILES
99 | 209 to 211 | Oc1ccc(-n2cnnn2)cc1
100 | 156 to 158 | CS(=O)(=O)Nc1ccc(Cl)c(N)c1
101 | 180 to 182 | C=CCNS(=O)(=O)c1cccc(C(=O)O)c1
102 | 126 to 128 | Nc1ccnc(-c2ccccc2)c1
103 | 289 to 291 | Oc1ccc(/C=C/c2ccc3ccccc3n2)cc1
104 | 323 to 325 | O=C(O)c1cc(=O)[nH]c2cc(F)ccc12
105 | 126 to 128 | COc1ccccc1Cn1cnc2cc(C)c(C)cc21
106 | 106 to 108 | COc1ccc(N)cc1OCc1ccc2ccccc2n1
107 | 163 to 165 | O=c1[nH]c(-c2cccc(Cl)c2)cs1
108 | 121 to 123 | Cc1ccccc1CC(N)=NO
109 | 366 to 368 | Cn1c(=O)[nH]c2ccc(C(=O)O)cc21
110 | 309 to 311 | COc1ccc2nc(O)c(C(=O)O)cc2c1
111 | 100 to 102 | Cc1noc(-c2ccc(C)c([N+](=O)[O-])c2)n1
112 | 186 to 188 | Cc1n[nH]c2ncc(N)cc12
113 | 101 to 103 | CCOC(=O)c1cnc2c(C)cc(Br)cc2c1Cl
114 | 131 to 133 | Cc1cc(S(N)(=O)=O)ccc1[N+](=O)[O-]
115 | 40 to 42 | CC(C)Nc1cccnc1
116 | 116 to 118 | O=[N+]([O-])c1c(NC2CC2)cccc1NC1CC1
117 | 134 to 136 | O=C(O)c1cnc(Oc2ccccc2)cn1
118 | 76 to 78 | Cc1ccc(OCC2CCCO2)c(S(=O)(=O)Cl)c1 (centres undefined)
119 | 258 to 260 | COc1ccc2cc(-c3cc(C(=O)O)c4ccccc4n3)ccc2c1
120 | 88 to 90 | CCNCC(=O)Nc1ccc(OC)cc1
121 | 199 to 201 | NS(=O)(=O)c1cc(Br)ccc1Br

Row | melting point [°C] | SMILES
122 | 134 to 136 | CNC(=O)Cn1ccc2ccc(N)cc21
123 | 211 to 213 | Oc1cccc(-c2nnco2)c1
124 | 284 to 286 | Cn1cnc2cc(C(=O)O)cnc21
125 | 150 to 152 | O=C(O)C1(c2cccc(Cl)c2)CCCC1
126 | 47 to 49 | CC(N)c1ccc(-c2cncnc2)cc1 (centres undefined)
127 | 242 to 244 | Cc1ccc(NC(=O)c2cc(Cl)ccc2Cl)c(C(=O)O)c1
128 | 190 to 192 | Cc1nc(-c2ccccc2)ccc1C(=O)O
129 | 238 to 240 | Cc1cccc2[nH]c(CCC(=O)O)nc12
130 | 169 to 171 | O=Cc1ccnc2[nH]ccc12
131 | 222 to 224 | O=C(Nc1ccc(Cl)cc1)Nc1ccccc1Br
132 | 91 to 93 | O=C(c1ccccc1)c1cc(Cl)ccc1Cl
133 | 124 to 126 | Cc1ccc(N2CCOC2=O)cc1N
134 | 179 to 181 | CC(C)S(=O)(=O)Nc1ccc(C(=O)O)cc1
135 | 215 to 217 | O=C(O)c1cc(-c2ccccn2)ccc1Cl
136 | 196 to 198 | Cc1cccc(Nc2nnc(S)s2)c1
137 | 144 to 146 | CN(C(=O)c1cccc(N)c1)c1ccccc1
138 | 146 to 148 | Nc1nnc(Cc2cccc(F)c2)o1
139 | 93 to 95 | O=CC1=C(Sc2nc3ccccc3o2)CCCC1
140 | 129 to 131 | O=C1CCc2[nH]c3ccccc3c2C1
141 | 102 to 104 | Cc1ccc(NC(=O)C(C)Cl)cc1F (centres undefined)
142 | 177 to 179 | COc1ccc2c(CO)cc(=O)oc2c1
143 | 182 to 184 | O=C(O)c1cc(-c2ccccc2F)nc2onc(C3CC3)c12
144 | 183 to 185 | CN(C)S(=O)(=O)c1cc(NC(=O)CCl)ccc1Cl
